1 molecule from US11591634B1, “Forecasting bacterial survival-success and adaptive evolution through multiomics stress-response mapping and machine learning” (priority 2019, dated 2023) can be followed below.

Common to all, as to assay type: cell-based, Streptococcus pneumoniae
One experiment relates to S. pneumoniae 19F. Put plainly: Fitness outcome under antibiotic exposure (growth curve assay). The procedure:
(§1) To test whether a gene-panel model can be trained that predicts fitness for many different conditions, a large RNA-Seq dataset was generated for the human pathogen Streptococcus pneumoniae. […] These include cell wall synthesis inhibitors (CWSI), DNA synthesis inhibitors (DSI), protein synthesis inhibitors (PSI) and RNA synthesis inhibitors ((RSI); FIG. 1A, Tables 1 & 2). Each strain was exposed to each antibiotic for 2 to 4 hours and cells were harvested for RNA-Seq at various time points. As T4 and 19F are susceptible to most antibiotics used, the transcriptional profiles in the presence of antibiotics mostly represent cases of low fitness (FIG. 1A, sensitive strain, 1xMICWT). In order to find patterns that differentiate fitness outcomes, adapted strains were generated with increased fitness in the presence of antibiotics by serial passaging wildtype T4 and 19F in the presence of increasing amounts of antibiotics. Four independent adapted populations for each strain were selected on individual antibiotics. These adapted strains could grow in the presence of antibiotic at 1.5xMIC of the wildtype strain, albeit with a small growth defect (FIGS. 6A-6E & 6F). In parallel, RNA-Seq was performed on S. pneumoniae strains D39 and T4 in a chemically defined medium, and media from which either uracil, Glycine or L-Valine was removed, which are essential for D39 but not T4. This enabled the potential identification of a common stress signature that is shared between antibiotic exposure and nutrient deprivation, and across multiple strains. Lastly, D39 was adapted to grow in the absence of each individual nutrient, after which RNA-Seq was repeated for adapted clones (Table 1 lists all 24 strains, 67 populations and 267 RNA-Seq experiments).
(§2) S. pneumoniae strain TIGR4 (T4; NC_003028.3) is a serotype 4 strain originally isolated from a patient^3,4, Taiwan-19F (19F; NC_012469.1) is a multi-drug resistant strain^5,6 and D39 (NC_008533) is a commonly used serotype 2 strain originally isolated from a patient about 90 years ago^7. Strain PG1 and PG19 were isolated from adults with pneumococcal bacteremia infection and included in the Pneumococcal Bacteremia Collection Nijmegen (PBCN)^8. All S. pneumoniae gene numbers refer to the T4 genome. Correspondence between homologous genes among S. pneumoniae strains and gene function annotations are described herewith. Escherichia coli strain AR538, Klebsiella pneumoniae strain AR497 and Salmonella enterica subsp Typhimurium strain AR635 were clinical isolates obtained from the Center of Disease Control (CDC). Staphylococcus aureus strain MN6 was kindly provided by George Sakoulas (Center of Immunity, Infection & Inflammation, UCSD School of Medicine). Unless otherwise specified, S. pneumoniae strains were cultivated in Todd Hewitt medium with 5% yeast extract (THY) with 5 μL/mL oxyrase (Oxyrase, Inc) or on sheep's blood agar plates (Northeastern Laboratories) at 37° C. with 5% CO2. A. baumannii, E. coll. K. pneumoniae, S. aureus and S. Typhimurium were cultured in Mueller Hinton broth II (Sigma) at 37° C. with 220 rpm constant shaking. Tn-Seq and RNA-Seq experiments of S. pneumoniae under nutrient-depletion and antibiotic conditions were performed in chemically defined medium (CDM)^9 and semi-defined minimal medium (SDMM)^10, respectively. RNA-Seq experiments for A. baumannii, S. Typhimurium, E. coll. K. pneumoniae, and S. aureus were performed in Mueller Hinton broth II. Single strain growth assays were performed at least three times using 96-well plates by taking OD600 measurements on a Tecan Infinite 200 PRO plate reader.

In a further experiment the test system is S. pneumoniae T4. The description is as above. On the procedure: as §1, §2
The test system of a further experiment is S. pneumoniae serotype 1. Put plainly: Fitness outcome under ciprofloxacin (growth curve assay). The following applies: 1 μg/mL ciprofloxacin. The procedure:
(§3) Since the single-timepoint variant of entropy is the most practical (in terms of data collection and cost), the generalizability of entropy to previously unseen species was evaluated using this model. RNA-Seq was performed at 120 min post exposure to 1 μg/mL of CIP. […] Single-timepoint entropy was computed for the transcriptome of each of these previously unseen isolates.
as §2

The subject of experiment [1] is S. pneumoniae serotype 23F. The experiment is described as above. The following applies: S. pneumoniae 23F. The procedure:
as §3, §2

As for `O=C(O)c1cn(C2CC2)c2cc(N3CCNCC3)c(F)cc2c1=O` [Ciprofloxacin, ciprofloxacin], the Fitness entry in the experiment on S. pneumoniae 19F (S. pneumoniae 19F wild-type, growth curves) was “Low”; in the experiment with S. pneumoniae T4 (S. pneumoniae T4 wild-type, 1xMIC antibiotic, growth curves), “Low”; with S. pneumoniae serotype 1 it was “Low”; in the experiment on S. pneumoniae serotype 1 (listed as ciprofloxacin), “low fitness”; in experiment [1] (1 μg/mL ciprofloxacin), “High”; in experiment [1] (1 μg/mL ciprofloxacin, listed as CIP), “insensitive”. For the same molecule, the Fitness entry in experiment [1] (1 μg/mL ciprofloxacin, listed as ciprofloxacin) is “high fitness”; in experiment [1] (strain-specific 1xMIC of ciprofloxacin) it was “Low,”. For the same molecule, the “Survive (real survival outcome)” value is listed as “FALSE” with S. pneumoniae 19F (strain 19F, Adapted FALSE, Concentration L (low)) and “FALSE” in the experiment with S. pneumoniae T4 (strain T4, Adapted FALSE, Concentration L (low)).
